Experimental data: patent publication US9828350B2, “5,6-dihydro-2H-[1,4]oxazin-3-yl-amine derivatives useful as inhibitors of beta-secretase (BACE)” (Janssen Pharmaceutica NV, priority 2010, dated 2017)

Key:
P-gp = target: T1, P-gp (Homo sapiens, UniProt P08183); test: Transepithelial transport of test compounds through LLC-MDR1 monolayers; assay type: in vitro ADME; settings: for Papp A→B at 120 min, 1 μM: read-out: A to B (Apparent Permeability, Papp); for Papp B→A at 120 min, 1 μM: read-out: B to A (Apparent Permeability, Papp)
T1 construct: expressed in transfected cells; host or cells: LLC-PK1 cells stably transduced with MDR1 (LLC-MDR1)
T1 sequence (P08183 whole entry): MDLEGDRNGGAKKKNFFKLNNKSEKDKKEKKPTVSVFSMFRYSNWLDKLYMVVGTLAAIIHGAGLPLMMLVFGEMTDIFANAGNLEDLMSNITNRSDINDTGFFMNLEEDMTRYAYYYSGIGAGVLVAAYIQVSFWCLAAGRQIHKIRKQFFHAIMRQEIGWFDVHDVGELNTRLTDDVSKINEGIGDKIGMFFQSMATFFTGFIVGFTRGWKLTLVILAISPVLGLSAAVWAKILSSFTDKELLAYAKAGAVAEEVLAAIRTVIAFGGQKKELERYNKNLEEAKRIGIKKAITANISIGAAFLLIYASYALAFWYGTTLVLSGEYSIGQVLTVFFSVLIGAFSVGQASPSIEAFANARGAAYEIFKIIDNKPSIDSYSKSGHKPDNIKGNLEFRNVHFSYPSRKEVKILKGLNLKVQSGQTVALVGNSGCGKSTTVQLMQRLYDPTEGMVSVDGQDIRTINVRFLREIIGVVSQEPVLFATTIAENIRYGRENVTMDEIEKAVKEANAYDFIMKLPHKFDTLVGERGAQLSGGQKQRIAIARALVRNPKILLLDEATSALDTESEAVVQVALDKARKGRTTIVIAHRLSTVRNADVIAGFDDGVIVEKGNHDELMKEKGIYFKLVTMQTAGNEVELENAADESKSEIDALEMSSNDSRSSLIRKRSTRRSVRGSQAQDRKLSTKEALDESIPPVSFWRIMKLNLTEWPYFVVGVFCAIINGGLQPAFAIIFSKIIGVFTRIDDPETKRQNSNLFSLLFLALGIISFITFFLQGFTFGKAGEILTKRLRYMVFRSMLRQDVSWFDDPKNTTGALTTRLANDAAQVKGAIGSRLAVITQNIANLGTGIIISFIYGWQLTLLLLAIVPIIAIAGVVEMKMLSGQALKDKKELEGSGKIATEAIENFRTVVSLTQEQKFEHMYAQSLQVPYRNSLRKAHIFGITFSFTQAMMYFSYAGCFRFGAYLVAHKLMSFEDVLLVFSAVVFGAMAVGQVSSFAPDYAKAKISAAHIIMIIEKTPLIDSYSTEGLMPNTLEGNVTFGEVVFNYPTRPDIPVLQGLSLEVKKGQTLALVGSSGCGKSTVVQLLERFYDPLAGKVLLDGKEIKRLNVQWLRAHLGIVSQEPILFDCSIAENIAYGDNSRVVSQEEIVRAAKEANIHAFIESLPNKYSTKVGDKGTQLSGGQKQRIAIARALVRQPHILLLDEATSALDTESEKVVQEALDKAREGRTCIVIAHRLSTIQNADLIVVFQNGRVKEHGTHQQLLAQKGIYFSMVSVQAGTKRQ
Method: Brief Assay Description for the Measurement of Transepithelial Transport of Test Compounds Through LLC-MDR1 Monolayers
The purpose of this assay was to assess both the in vitro passive permeability of test compounds and their ability to be transported substrates of P-gp using LLC-PK1 cells stably transduced with MDR1 in a trans-well system. The positive control for transport was ^3H-digoxin (30 nM) and the positive control inhibitor was GF120918 (5 μM). The marker compound for low permeability was ^14C-Mannitol (1 μM). The test compound concentration was 1 μM.
The integrity of the cellular monolayer was assessed in each incubation well through the inclusion of the fluorescent, low permeability marker compound, Fluorescein.
In detail, LLC-MDR1 cells were seeded on 24-well cell culture inserts (Millicell®-PCF, 0.4 μm, 13 mm diameter, 0.7 cm^2) at 400,000 cells/cm^2. Cell culture medium consisted of Medium 199 supplemented with 10% Foetal Bovine Serum (FBS) and 100 U/ml Penicillin/streptomycin and was replaced the day after seeding and the day before the experiment. The transport experiment was performed 5 days after seeding. On the day of the experiment, solutions of the test compounds were applied to the apical or basolateral side of the monolayers to assess transport in the A to B and B to A directions, respectively. The medium used in the assay was (OPTI-MEM (1×) (GIBCO) with 1 w/v % Bovine Serum Albumin. Inserts were incubated at 37° C. in a humidified incubator containing 5% CO2. Samples from the acceptor and donor compartments were collected after an incubation time of 120 min, to assess the permeability and to allow estimation of the test compound recovery during the experiment, respectively. Transport experiments were performed in triplicate. Absolute test compound concentrations were measured using LC-MS/MS and quantified via a calibration curve.

Aβtotal = test: Demonstration of in vivo efficacy, brain Aβtotal lowering (ELISA); settings: mouse brain, 30 mpk
Description: (§1) To determine whether acute administration of an Aβ42 peptide lowering agent would reduce Aβ peptide levels in vivo, non-transgenic rodents, e.g. mice or rats were used. Animals treated with the Aβ peptide lowering agent were examined and compared to those untreated or treated with vehicle and brain levels of soluble Aβ42 and total Aβ were quantitated by standard techniques, for example, using ELISA.
(§2) A typical protocol for measuring Aβ42 lowering in vivo is shown but it is only one of many variations that could be used to optimize the levels of detectable Aβ. For example, Aβ peptide lowering compounds were formulated in 20% hydroxypropyl 3 cyclodextrin. The Aβ peptide lowering agents were administered as a single oral dose (p.o.) or a single subcutaneous dose (s.c.) to overnight fasted animals. After a certain time, usually 2 or 4 h (as indicated in Table 19), the animals were sacrificed and Aβ42 levels were analysed.
(§3) Blood was collected by decapitation and exsanguinations in EDTA-treated collection tubes. Blood was centrifuged at 1900 g for 10 minutes (min) at 4° C. and the plasma recovered and flash frozen for later analysis. The brain was removed from the cranium and hindbrain. The cerebellum was removed and the left and right hemisphere were separated. The left hemisphere was stored at −18° C. for quantitative analysis of test compound levels. The right hemisphere was rinsed with phosphate-buffered saline (PBS) buffer and immediately frozen on dry ice and stored at −80° C. until homogenization for biochemical assays.
(§4) Mouse brains from non-transgenic animals were resuspended in 8 volumes of 0.4% DEA (diethylamine)/50 mM NaCl containing protease inhibitors (Roche-11873580001 or 04693159001) per gram of tissue, e.g. for 0.158 g brain, add 1.264 ml of 0.4% DEA. All samples were homogenized in the FastPrep-24 system (MP Biomedicals) using lysing matrix D (MPBio #6913-100) at 6 m/s for 20 seconds. Homogenates were centrifuged at 221.300×g for 50 min. The resulting high speed supernatants were then transferred to fresh eppendorf tubes. Nine parts of supernatant were neutralized with 1 part 0.5 M Tris-HCl pH 6.8 and used to quantify Aβtotal and Aβ42.
(§5) To quantify the amount of Aβtotal and Aβ42 in the soluble fraction of the brain homogenates, Enzyme-Linked-Immunosorbent-Assays were used. Briefly, the standards (a dilution of synthetic Aβ1-40 and Aβ1-42, Bachem) were prepared in 1.5 ml Eppendorf tube in Ultraculture, with final concentrations ranging from 10000 to 0.3 pg/ml. The samples and standards were co-incubated with HRPO-labelled N-terminal antibody for Aβ42 detection and with the biotinylated mid-domain antibody 4G8 for Aβtotal detection. […] The plate was allowed to incubate overnight at 4° C. in order to allow formation of the antibody-amyloid complex. Following this incubation and subsequent wash steps the ELISA for Aβ42 quantification was finished by addition of Quanta Blu fluorogenic peroxidase substrate according to the manufacturer's instructions (Pierce Corp., Rockford, Ill.). A reading was performed after 10 to 15 min (excitation 320 nm/emission 420 nm).
For Aβtotal detection, a Streptavidine-Peroxidase-Conjugate was added, followed 60 min later by an additional wash step and addition of Quanta Blu fluorogenic peroxidase substrate according to the manufacturer's instructions (Pierce Corp., Rockford, Ill.). A reading was performed after 10 to 15 min (excitation 320 nm/emission 420 nm).

Abeta total = test: Cellular αLisa assay in SKNBE2 cells, Abeta total; assay type: cell-based, human; settings: incubated for 18 hours; for IC50: Homo sapiens, SKNBE2, 18 h, read-out: Cellular αLisa assay in SKNBE2 cells Abetatotal pIC50 (converted)
Method in brief: (§6)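 Human neuroblastoma SKNBE2 cells expressing wild-type hAPP695 were incubated with compound for 18 hours. Secreted Abeta total and Abeta 1-42 in medium were quantified by sandwich αLisa: biotinylated AbN/25 on streptavidin donor beads with Ab4G8 (total) or cAb42/26 (1-42) acceptor beads. Light emission read after 1 hour (ex 650 nm, em 615 nm).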

Abeta 1-42 = test: Cellular αLisa assay in SKNBE2 cells, Abeta 1-42; assay type: cell-based, human; settings: incubated for 18 hours; for IC50: Homo sapiens, SKNBE2, 18 h, read-out: Cellular αLisa assay in SKNBE2 cells Abeta 42 pIC50 (converted)
Method in brief: as §6

Aβ42 = test: Demonstration of in vivo efficacy, brain Aβ42 lowering (ELISA); settings: mouse brain, 30 mpk
Description: as §1, §2, §3, §4, §5

[1] = target: recombinant BACE1 protein (Homo sapiens, UniProt P56817); test: Biochemical FRET based assay; settings: recombinant BACE1 1 μg/ml, 120 minutes at room temperature, pH 5.0; for IC50: read-out: Biochemical FRET based assay pIC50 (converted)
Sequence of recombinant BACE1 protein (P56817 46-501): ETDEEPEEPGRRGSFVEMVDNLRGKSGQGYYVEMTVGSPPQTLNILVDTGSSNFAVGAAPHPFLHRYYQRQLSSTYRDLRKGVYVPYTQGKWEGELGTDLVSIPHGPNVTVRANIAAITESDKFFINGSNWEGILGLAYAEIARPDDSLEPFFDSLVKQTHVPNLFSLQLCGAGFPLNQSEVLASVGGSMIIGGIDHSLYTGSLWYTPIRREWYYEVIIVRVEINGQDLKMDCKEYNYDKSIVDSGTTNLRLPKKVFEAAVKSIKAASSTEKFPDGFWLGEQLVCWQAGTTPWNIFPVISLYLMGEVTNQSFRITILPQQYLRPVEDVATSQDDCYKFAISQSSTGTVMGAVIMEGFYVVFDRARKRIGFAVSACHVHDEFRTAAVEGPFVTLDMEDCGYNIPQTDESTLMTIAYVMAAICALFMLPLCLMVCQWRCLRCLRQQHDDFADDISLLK
Method in brief: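 Recombinant BACE1 (1 μg/ml final) was incubated 120 minutes at room temperature with […] Mca/Dnp-labelled 13-mer APP Swedish-mutant peptide in 40 mM citrate pH 5.0, 0.04% PEG, 4% DMSO, with or without compound. Cleavage was measured as fluorescence (ex 320/em 405 nm), given as RFU difference between T120 and T0.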

Compound	Papp A→B at 120 min, 1 μM (P-gp; pig, LLC-PK1) [×10⁻⁶ cm/s]	Papp B→A at 120 min, 1 μM (P-gp; pig, LLC-PK1) [×10⁻⁶ cm/s]	Aβtotal (% Ctrl)_Mean (Aβtotal; p.o., 4 h) [% Ctrl]	IC50 (Abeta total) [nM]	IC50 (Abeta 1-42) [nM]	Aβ42 (% Ctrl)_Mean (Aβ42; p.o., 4 h) [% Ctrl]	IC50 [1] [nM]	Cellular αLisa assay in SKNBE2 cells Abetatotal pIC50 (Abeta total)	Cellular αLisa assay in SKNBE2 cells Abeta 42 pIC50 (Abeta 1-42)	efflux ratio at 120 min, 1 μM (P-gp; pig, LLC-PK1, LLC-MDR1 monolayers, ratio of B to A and A to B permeation rates, read-out: BA/AB)	Aβtotal (% Ctrl)_Mean (Aβtotal; s.c., 2 h) [% Ctrl]	Aβ42 (% Ctrl)_Mean (Aβ42; s.c., 2 h) [% Ctrl]	A to B (Apparent Permeability, Papp) (P-gp; LLC-MDR1 monolayers, 1 μM test compound, 120 minutes, apical to basolateral, absence of GF120918) [×10⁻⁶ cm/s]	B to A (Apparent Permeability, Papp) (P-gp; LLC-MDR1 monolayers, 1 μM test compound, 120 minutes, basolateral to apical) [×10⁻⁶ cm/s]	BA/AB (P-gp; LLC-MDR1 monolayers, ratio of B to A and A to B permeation rates)	Aβtotal (% Ctrl)_Mean (Aβtotal; s.c., 4 h) [% Ctrl]	Aβ42 (% Ctrl)_Mean (Aβ42; s.c., 4 h) [% Ctrl]	Biochemical FRET based assay pIC50 [1]
COc1cnc(C(=O)Nc2ccc(F)c([C@@]3(C)N=C(N)CO[C@H]3C(F)(F)F)c2)cn1 [Compound 166, (2R,3R)—N-{3-[5-amino-3-methyl-2-(trifluoromethyl)-3,6-dihydro-2H-1,4-oxazin-3-yl]-4-fluorophenyl}-5-methoxypyrazine-2-carboxamide]	13.7	13.6	43	12.3	12.6	50	50.1											
CC1(c2cc(NC(=O)c3ccc(Cl)cn3)ccc2F)N=C(N)COC1F (single isomer, unassigned) [Compound 134]	8.9	17.7	35			27		8.42	8.39									
C[C@@]1(c2cc(-c3cncnc3)c(F)cc2F)N=C(N)CO[C@H]1F (single isomer, unassigned) [Compound 82, (S*,S*)-5-(2,4-difluoro-5-pyrimidin-5-ylphenyl)-6-fluoro-5-methyl-5,6-dihydro-2H-1,4-oxazin-3-amine]	10.5	23.9		245	251		631			2.3	44	57						
CC1(c2cc(-c3cncnc3)c(F)cc2F)COCC(N)=N1 (single isomer, unassigned) [Compound 55]								6.99	6.89				9.5	34.4	3.6	87	88	5.55
COc1cnc(C(=O)Nc2ccc(F)c([C@@]3(C4CC4)N=C(N)CO[C@@H]3F)c2)cn1 [Compound 216]	12	12	39	631		45												
C[C@]1(c2cc(NC(=O)c3ccc(C#N)cn3)ccc2F)N=C(N)CO[C@H]1C(F)(F)F [Compound 169]	10.5	19	39	6.76	6.92	38	56.2											
